Experimental data: patent publication US9023821B2, “Use of MicroRNA for treating diseases associated with a dysfunction of the cilia in multiciliated epithelial cells” (Centre National de la Recherche Scientifique, priority 2009, dated 2015)

Columns and labels:
[1] = tested on: human airway epithelial cells (HAECs); experiment: High-throughput sequencing (HTS) of miRNAs at four stages of differentiation of HAECs; settings: for Modulation (ratio of the level of intensity of expression in log2 in two stages of differentiation) measured by high-throughput sequencing, D7 − D0 / Modulation (ratio of the level of intensity of expression in log2 in two stages of differentiation) measured by high-throughput sequencing, FC − D7 / Modulation (ratio of the level of intensity of expression in log2 in two stages of differentiation) measured by high-throughput sequencing, WD − D0 / Modulation (ratio of the level of intensity of expression in log2 in two stages of differentiation) measured by high-throughput sequencing, WD − FC / Level of intensity of expression in log2 measured by high-throughput sequencing, D0 / Level of intensity of expression in log2 measured by high-throughput sequencing, D7 / Level of intensity of expression in log2 measured by high-throughput sequencing, FC / Level of intensity of expression in log2 measured by high-throughput sequencing, WD: Table VI; for Level of intensity of expression in log2 At the differentiated stage (WD) measured in HTS: healthy human airway epithelial tissue; for Level of intensity of expression in log2 measured by high-throughput sequencing, D0: stage D0; for Level of intensity of expression in log2 measured by high-throughput sequencing, D7: stage D7; for Level of intensity of expression in log2 measured by high-throughput sequencing, FC: stage FC; for Level of intensity of expression in log2 At the differentiated stage (WD) measured in HTS / Level of intensity of expression in log2 measured by high-throughput sequencing, WD: stage WD
How it was run: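 ALI cultures sampled at day 0, day 7, first-cilia stage (~14 d) and full differentiation (~21 d). Trizol lysis, column purification retaining small RNAs. Adaptor ligation, RT at 42° C for 30 min, PCR, gel selection of ~105-150 base products.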

[2] = tested on: basal cells and pyramidal cells of the airway epithelium; experiment: miRNA expression in sorted basal cells versus pyramidal cells (ciliated + secretory), HTS and Agilent chips; set-up: species or system human; settings: for Modulation of expression of the miRNAs in pyramidal cells (323(−)) relative to basal cells 323(+): HTS and Agilent chips; for Intensity of the level of expression in log2 in pyramidal cells (323(−)): pyramidal cells (ciliated + secretory)
How it was run: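 FACS on CD151 and tissue factor: double-positive = basal, double-negative = ciliated + mucus cells; DAPI, doublets, aggregates excluded; sort at 5000 events/s. Purity checked by cytometry/immunocytochemistry. miRNA by Agilent array or HTS on total RNA. Source: nasal polyps/conchae, 3 donors.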

[3] = tested on: human airway epithelial cells (HAECs); experiment: Agilent miRNA chips, miRNA expression at four stages of differentiation of HAECs; settings: for Modulation (ratio of the level of intensity of expression in log2 in two stages of differentiation) measured with the Agilent chips, D7 − D0 / Modulation (ratio of the level of intensity of expression in log2 in two stages of differentiation) measured with the Agilent chips, FC − D7 / Modulation (ratio of the level of intensity of expression in log2 in two stages of differentiation) measured with the Agilent chips, WD − D0 / Modulation (ratio of the level of intensity of expression in log2 in two stages of differentiation) measured with the Agilent chips, WD − FC / Level of intensity of expression in log2 measured with the Agilent chips, D0 / Level of intensity of expression in log2 measured with the Agilent chips, D7 / Level of intensity of expression in log2 measured with the Agilent chips, FC / Level of intensity of expression in log2 measured with the Agilent chips, WD: Table VI; for Modulation (ratio of the level of intensity of expression in log2 at two stages of differentiation), FC − D7 / Modulation (ratio of the level of intensity of expression in log2 at two stages of differentiation), WD − FC: Agilent miRNA chips, Table V; for Level of intensity of expression in log2 measured with the Agilent chips, D0: stage D0; for Level of intensity of expression in log2 measured with the Agilent chips, D7: stage D7; for Level of intensity of expression in log2 measured with the Agilent chips, FC: stage FC; for Level of intensity of expression in log2 measured with the Agilent chips, WD: stage WD
How it was run: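 RNA from the same patients used for small-RNA sequencing was labelled and hybridized to a Human miRNA Microarray v2 (866 human and 89 human viral miRNAs, covering miRBase v.12.0) with the kit's labelling and hybridization protocol, giving miRNA expression profiles to compare against the sequencing data.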

Substance | Modulation (ratio of the level of intensity of expression in log2 in two stages of differentiation) measured by high-throughput sequencing, D7 − D0 [1] [log2] | Modulation (ratio of the level of intensity of expression in log2 in two stages of differentiation) measured by high-throughput sequencing, FC − D7 [1] [log2] | Modulation (ratio of the level of intensity of expression in log2 in two stages of differentiation) measured by high-throughput sequencing, WD − D0 [1] [log2] | Modulation (ratio of the level of intensity of expression in log2 in two stages of differentiation) measured by high-throughput sequencing, WD − FC [1] [log2] | Level of intensity of expression in log2 At the differentiated stage (WD) measured in HTS [1] [log2] | Level of intensity of expression in log2 measured by high-throughput sequencing, D0 [1] [log2] | Level of intensity of expression in log2 measured by high-throughput sequencing, D7 [1] [log2] | Level of intensity of expression in log2 measured by high-throughput sequencing, FC [1] [log2] | Level of intensity of expression in log2 measured by high-throughput sequencing, WD [1] [log2] | Modulation of expression of the miRNAs in pyramidal cells (323(−)) relative to basal cells 323(+) [2] | Intensity of the level of expression in log2 in basal cells (323(+)) [2] [log2] | Intensity of the level of expression in log2 in pyramidal cells (323(−)) [2] [log2] | Modulation (ratio of the level of intensity of expression in log2 in two stages of differentiation) measured with the Agilent chips, D7 − D0 [3] [log2] | Modulation (ratio of the level of intensity of expression in log2 at two stages of differentiation), FC − D7 [3] [log2] | Modulation (ratio of the level of intensity of expression in log2 in two stages of differentiation) measured with the Agilent chips, FC − D7 [3] [log2] | Modulation (ratio of the level of intensity of expression in log2 in two stages of differentiation) measured with the Agilent chips, WD − D0 [3] [log2] | Modulation (ratio of the level of intensity of expression in log2 at two stages of differentiation), WD − FC [3] [log2] | Modulation (ratio of the level of intensity of expression in log2 in two stages of differentiation) measured with the Agilent chips, WD − FC [3] [log2] | Level of intensity of expression in log2 measured with the Agilent chips, D0 [3] [log2] | Level of intensity of expression in log2 measured with the Agilent chips, D7 [3] [log2] | other results
hsa-miR-106b: human miRNA, SEQ ID No. 2 (UAAAGUGCUGACAGUGCAGAU; expressed or natural sequence; listed as Homo sapiens) | 1.33 | −0.28 | 0.96 | −0.09 | 5.39 | 4.43 | 5.76 | 5.48 | 5.39 | −2.05 | 7.22 | 5.16 | 1.39 | −0.53 | −0.53 | 0.69 | −0.18 | −0.18 | 8.08 | 9.47 | Level of intensity of expression in log2 measured with the Agilent chips, FC [3]: 8.94 log2; Level of intensity of expression in log2 measured with the Agilent chips, WD [3]: 8.77 log2
hsa-miR-125a-5p: human miRNA, SEQ ID No. 3 (UCCCUGAGACCCUUUAACCUGUGA; expressed or natural sequence; listed as Homo sapiens) | 0.64 | −0.27 | 1.16 | 0.79 | 14.08 | 12.92 | 13.55 | 13.29 | 14.08 | −0.05 | 6.63 | 6.58 | 1.29 | −0.46 | −0.46 | 0.79 | −0.04 | −0.04 | 7.37 | 8.66 | Modulation (ratio of the level of intensity of expression in log2 in two stages of differentiation), D7 − D0 ([1]; HTS): 0.64 log2; Modulation (ratio of the level of intensity of expression in log2 in two stages of differentiation), FC − D7 ([1]; HTS): −0.27 log2; Modulation (ratio of the level of intensity of expression in log2 in two stages of differentiation), WD − FC ([1]; HTS): 0.79 log2; Abundance (%), D0 ([1]; HTS, ALI-D0): 1.69%; Abundance (%), D7 ([1]; HTS, ALI-D7): 2.64%; Abundance (%), FC ([1]; HTS, ALI-FC): 2.13%; Abundance (%), WD ([1]; HTS, ALI-WD): 2.79%; Level of intensity of expression in log2 measured with the Agilent chips, FC [3]: 8.20 log2; Level of intensity of expression in log2 measured with the Agilent chips, WD [3]: 8.15 log2
